These results are taken from patent US20130331378A1, “PYRAZOLOPYRIDINE DERIVATIVE OR PHARMACOLOGICALLY ACCEPTABLE SALT THEREOF” (KISSEI PHARMACEUTICAL CO., LTD., priority 2011, published 2013).

Test [1] relates to 17-PTP-induced bladder contraction. Nature of the test: Suppressing effect on 17-phenyl trinor prostaglandin E2 (17-PTP)-induced bladder contraction. It counts as in vivo, Wistar-type male rat. The conditions noted are these: urethane-anesthetized spinal cord-cut rat; test compound 1 mg/kg i.v. 5 minutes before 17-PTP i.a.; most decreased value until 95 minutes, relative to average before test compound administration. The method, then: (1) Preparation of Experimental Animal
A 10 w/v % urethane solution was subcutaneously administered (s. c.) at a dose of 1.5 g/kg to a Wistar-type male rat to thereby induce anesthesia. Approximately 40 minutes after the urethane administration, the rat was confirmed to be fully anesthetized, hair in the back, the thighs on both sides, the abdomen, and the neck was shaved, and fixation in a face-down position was performed. After midline incision of the dorsal skin, thoracodorsal muscles on both sides were incised along the spine, and the muscular layer was opened with a retractor to expose the thoracic spine. While the ninth thoracic vertebra was pulled cranially, a small hole was made with bone forceps, and from it, the spinal cord was cut using a soldering iron. At this time, in the case where bleeding was heavy, a gelatin sponge for hemostasis was put into the cut portion. The thoracodorsal incision layer was closed using a surgical adhesive, and then, the rat was fixed in a face-up position. […]
The rat was placed in a face-up position on a heating pad for small animals, and a rectal temperature probe was inserted from the anus to keep the body temperature at 37.5° C. The body temperature was confirmed to become 37.5° C., then 0.1 mL of a physiological saline solution was injected into the bladder, and intravesical pressure was measured. […]

The target in test [2] is T1, rat EP1 receptor (Rattus norvegicus, UniProt P70597).
T1 construct: expressed in transfected cells
T1 sequence (P70597 1-405): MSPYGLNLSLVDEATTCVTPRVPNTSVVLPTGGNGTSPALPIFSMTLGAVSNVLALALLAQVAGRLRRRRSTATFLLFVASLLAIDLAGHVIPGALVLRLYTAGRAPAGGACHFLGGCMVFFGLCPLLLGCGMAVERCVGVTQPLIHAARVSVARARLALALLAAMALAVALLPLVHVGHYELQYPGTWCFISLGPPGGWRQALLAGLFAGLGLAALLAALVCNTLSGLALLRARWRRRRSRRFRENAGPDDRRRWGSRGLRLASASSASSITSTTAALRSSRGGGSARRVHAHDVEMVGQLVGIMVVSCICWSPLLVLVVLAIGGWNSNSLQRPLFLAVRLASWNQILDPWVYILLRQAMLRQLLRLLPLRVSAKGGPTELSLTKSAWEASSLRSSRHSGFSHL
Nature of the test: Test for confirming EP1 receptor antagonistic effect: suppression of prostaglandin E2-induced rise in intracellular calcium concentration. It counts as cell-based. Conditions: rat EP1 receptor-expressing COS-1 cells; prostaglandin E2 10 nM; Fluo 4-AM fluorescent signal; test compound 0.1 nM to 10 μM. As for the experimental part:
(1) Preparation of Rat EP1 Expression Vector
The first PCR was performed with Rat Kidney BD Marathon-Ready cDNA (Nippon Becton Dickinson Co., Ltd.) as a template using a forward primer represented by SEQ ID NO: 1 and a reverse primer represented by SEQ ID NO: 2 and using KOD-Plus-Ver 2.0 (Toyobo Co., Ltd.). The second PCR was further performed in a similar manner with this amplification product as a template using a forward primer represented by SEQ ID NO: 3 and a reverse primer represented by SEQ ID NO: 4. The amplification product obtained by the second PCR was incorporated into a vector (pcDNA3.1 D/V5-His-TOPO (registered trademark), Invitrogen Corporation). This vector with the incorporated amplification product was introduced to E. coli (One Shot TOP10 Competent Cell, Invitrogen Corporation) by a conventional method to perform transformation. This transformed E. coli was cultured for 1 day in an LB agar medium. After the culture, colonies were selected and cultured in an LB liquid medium containing 50 μg/mL of ampicillin. After the culture, the vector was purified using QIAprep Spin Miniprep Kit (Qiagen Corporation). The base sequence (SEQ ID NO: 5) of the inserted site in this vector was compared with the base sequence (Ptger1) of rat EP1 registered under Accession No. NM_013100 in a heretofore known database (NCBI) and consequently was completely identical except for 1 base. Moreover, an amino acid sequence translated from this base sequence was completely identical to the amino acid sequence of the rat EP1 receptor registered under Accession No. NP_037232 in NCBI. Thus, it was confirmed that the cloned gene sequence was the base sequence of the rat EP1 receptor and the obtained amino acid sequence was the rat EP1 receptor. The pcDNA3.1 D/V5-His-TOPO (registered trademark) in which the nucleic acid represented by SEQ ID NO: 5 was inserted was used as a rat EP1 expression vector.
(2) Preparation of Rat EP1 Receptor-Expressing Cell
COS-1 cells (Dainippon Sumitomo Pharma Co., Ltd.) were cultured at 37° C. in an incubator under 5% CO2 gas conditions using a D-MEM liquid medium (containing high glucose and L-glutamine, Invitrogen Corporation) supplemented with a penicillin-streptomycin solution (Invitrogen Corporation, final concentration: 100 U/mL as benzylpenicillin; 100 μg/mL as streptomycin) as antibiotics, MEM non-essential amino acids (Invitrogen Corporation, final concentration: 0.1 mM), and fetal bovine serum (Moregate Biotech, final concentration: 10%), until reaching confluence.
The cells that reached confluence were dissociated with 0.05% trypsin/0.53 mM EDTA.4Na (Invitrogen Corporation) and resuspended in the liquid medium. The resuspended cells were diluted with the liquid medium so that the spread ratio became 1:4 to 1:8, and were cultured.
The cells that reached confluence were dissociated with 0.05% trypsin/0.53 mM EDTA.4Na and resuspended in a D-MEM liquid medium (containing high glucose and L-glutamine, Invitrogen Corporation) supplemented with MEM non-essential amino acids (final concentration: 0.1 mM) and fetal bovine serum (final concentration: 10%). This resuspended cell suspension was prepared with a liquid medium so as to become the number of cells 5×10^4 cells/100 μL of the liquid medium/well in each well of a poly-D-lysine-coated 96-well microplate (BD BioCoat (registered trademark), Nippon Becton Dickinson Co., Ltd.), and this cell preparation was dispensed at 100 μL to each well and seeded. After the seeding, the cells were cultured at 37° C. in an incubator under 5% CO2 gas conditions. The introduction of the rat EP1 expression vector was performed by procedures shown below at the point in time when the cells for introduction of this rat EP1 expression vector adhered (approximately 2 hours after the seeding).
Lipofectamine 2000 (Invitrogen Corporation) was used for the introduction of the rat EP1 expression vector. […]

As for `O=C(O)c1cccc(Cc2c(-c3ccccc3)nn3cc(Cl)ccc23)n1` [Example 3-3, 6-[(6-Chloro-2-phenylpyrazolo[1,5-a]pyridin-3-yl)methyl]pyridine-2-carboxylic acid], in test [1], the “Amount of change in intravesical pressure” value was 53%. Moreover, the IC50 in test [2] was 8 nM.
